The values below come from patent US7462592B2, “Compositions and methods for polynucleotide delivery” (Novartis Vaccines and Diagnostics, Inc., priority 1996, dated 2008).

The subject of one data set is HT1080 and 293 cells. In words: Effect of chloroquine on transfection (FIG. 9). The format is cell-based, human. The settings on record: presence or absence of chloroquine. The method, then:
FIG. 9 illustrates the effect of chloroquine on transfection with RZ145-1 in (A) 293 cells and (B) HT1080 cells. The cells were transfected in the presence (black bar) or absence (stippled bar) of 100 uM chloroquine. Cells were lysed 48 hours post transfection and luciferase activity and total protein content were measured.
To determine whether chloroquine affected transfection mediated by polycationic agents of the present invention, HT1080 and 293 cells were transfected using RZ145-1 in the presence and absence of chloroquine. As a control, the same cell lines were transfected with polylysine both in the presence and absence of chloroquine. […] In contrast, polylysine-mediated transfection in the absence of chloroquine was 100-fold lower than polylysine mediated transfection in the presence of chloroquine.

For data set [1] the following is noted: Coulter N4MD submicron analyzer; Lee et al., 1996; cited from earlier work.

For the substance polylysine [reference compound], in the data set with HT1080 and 293 cells, the “transfection in the absence of chloroquine relative to presence of chloroquine, fold lower” value was 100 fold. The “mean diameter of particles of condensed polynucleotide” value in data set [1] is 50-200 nm.
